Drawing on ChEMBL document CHEMBL3044903, “Synthesis and Herbicidal Activity of Novel 3-Alkoxycarbonyl-3-aryl-2,3-dihydro-2-oxo-1H-pyrrole Derivatives” (J Pestic Sci, 2004), this text covers Activity for 16 compounds.

Series [1] relates to Oryza sativa. Description: Phytotoxicity against two-leaf stage Oryza sativa cv. Nipponbare (rice) planted zero cm depth at 5.0 g a.i/a measured after 3 weeks. To be noted: in vivo, 504 h. The format is organism-based.
For series [2], the system named is Oryza sativa. Nature of the series: Phytotoxicity against two-leaf stage Oryza sativa cv. Nipponbare (rice) planted 2 cm depth at 1 g a.i/a measured after 3 weeks. In kind it is organism-based. To be noted: in vivo, other, 504 h.
Series [3] deals with Oryza sativa. Description: Phytotoxicity against two-leaf stage Oryza sativa cv. Nipponbare (rice) planted 2 cm depth at 2.5 g a.i/a measured after 3 weeks. The format is organism-based. To be noted: in vivo, 504 h.
Series [4] deals with Oryza sativa. Nature of the series: Phytotoxicity against two-leaf stage Oryza sativa cv. Nipponbare (rice) planted 2 cm depth at 5.0 g a.i/a measured after 3 weeks. In kind it is organism-based. To be noted: in vivo, 504 h.
Series [5] deals with Echinochloa oryzicola. Nature of the series: Herbicidal activity against Echinochloa oryzicola at 1 g a.i/a treated at 2.5 leaf stage measured after 3 weeks. The format is functional.
Series [6] relates to Echinochloa oryzicola. Description: Herbicidal activity against Echinochloa oryzicola at 2.5 g a.i/a treated at 2.5 leaf stage measured after 3 weeks. The format is functional.
The subject of series [7] is Echinochloa oryzicola. Nature of the series: Herbicidal activity against Echinochloa oryzicola at 5.0 g a.i/a treated at 2.5 leaf stage measured after 3 weeks. The format is functional.
Series [8] has as its system Echinochloa oryzicola. Description: Herbicidal activity against Echinochloa oryzicola at 1 g a.i/a treated at 1.5 leaf stage measured after 3 weeks. In kind it is functional.
The test system of series [9] is Echinochloa oryzicola. Nature of the series: Herbicidal activity against Echinochloa oryzicola at 2.5 g a.i/a treated at 1.5 leaf stage measured after 3 weeks. In kind it is functional.
The subject of series [10] is Echinochloa oryzicola. Nature of the series: Herbicidal activity against Echinochloa oryzicola at 5.0 g a.i/a treated at 1.5 leaf stage measured after 3 weeks. In kind it is functional.
The subject of series [11] is Oryza sativa. Description: Phytotoxicity against two-leaf stage Oryza sativa cv. Nipponbare (rice) planted zero cm depth at 2.5 g a.i/a measured after 3 weeks. In kind it is organism-based. To be noted: in vivo, other, 504 h.
For series [12], the system named is Oryza sativa. Nature of the series: Phytotoxicity against two-leaf stage Oryza sativa cv. Nipponbare (rice) planted zero cm depth at 1 g a.i/a measured after 3 weeks. The format is organism-based. To be noted: in vivo, other, 504 h.
Series [13] has as its system Schoenoplectiella juncoides. Description: Pre-emergence herbicide activity against Schoenoplectiella juncoides under greenhouse condition at 1 g a.i/a measured after 3 weeks. In kind it is functional.
The test system of series [14] is Schoenoplectiella juncoides. Nature of the series: Pre-emergence herbicide activity against Schoenoplectiella juncoides under greenhouse condition at 10 g a.i/a measured after 3 weeks. The format is functional.
For series [15], the system named is Echinochloa oryzicola. Description: Pre-emergence herbicide activity against Echinochloa oryzicola under greenhouse condition at 1 g a.i/a measured after 3 weeks. The format is functional.
The test system of series [16] is Echinochloa oryzicola. Nature of the series: Post-emergence herbicide activity against Echinochloa oryzicola under greenhouse condition at 1 g a.i/a treated at one-leaf stage measured after 3 weeks. The format is functional.
Series [17] concerns Echinochloa oryzicola. Description: Post-emergence herbicide activity against Echinochloa oryzicola under greenhouse condition at 10 g a.i/a treated at one-leaf stage measured after 3 weeks. In kind it is functional.
In series [18] the test system is Echinochloa oryzicola. Nature of the series: Pre-emergence herbicide activity against Echinochloa oryzicola under greenhouse condition at 10 g a.i/a measured after 3 weeks. The format is functional.
The test system of series [19] is Schoenoplectiella juncoides. Description: Post-emergence herbicide activity against Schoenoplectiella juncoides under greenhouse condition at 1 g a.i/a treated at one-leaf stage measured after 3 weeks. In kind it is functional.
The subject of series [20] is Schoenoplectiella juncoides. Nature of the series: Post-emergence herbicide activity against Schoenoplectiella juncoides under greenhouse condition at 10 g a.i/a treated at one-leaf stage measured after 3 weeks. In kind it is functional.

For the compound `C=C1CN(C(C)(C)c2cc(Cl)cc(Cl)c2)C(=O)C1(C(=O)OC)c1ccccc1` (centres undefined), the Activity in [1] was found to be 99%; in series [2], 0%; in series [3], 0%; in series [4], 0%; in [5], 40%; in series [6], 99%. The Activity is 99% in [7]; 99% in series [8]; 99% in [9]; 100% in series [10]; 95% in [11]; 70% in series [12].

Regarding `COC(=O)C1(c2ccccc2)C(=O)N(C(C)(C)c2cc(Cl)cc(Cl)c2)C=C1/C=N/O` (centres undefined), the Activity in [13] stood at 0%; in [14] it was 75.1%; in [15], 0%; in series [16] it was 0%; in [17] it was 0.1%; in series [18], 100%. The Activity was determined as 0% in [19] and 0.1% in [20].

Turning to `COC(=O)C1(c2ccccc2)C(=O)N(C(C)(C)c2cc(F)cc(F)c2)C=C1C` (centres undefined), the Activity was 100% in [13]; 100% in [14]; 75.1% in series [15]; 50.1% in [16]; 100% in series [17]; 100% in series [18]. The Activity in series [19] and in series [20] was 87.6% in each case.

As to `COC(=O)C1(c2ccccc2)C(=O)N(C(C)(C)c2cccc(Cl)c2)C=C1C` (centres undefined), the Activity was determined as 50.1% in series [13]; 100% in series [14]; 100% in series [15]; 50.1% in series [16]; 100% in [17]; 100% in series [18]. Further, the Activity in series [19] was determined as 87.6%; in series [20], 87.6%; in series [1], 98%; in series [2], 0%; in series [3] it was 0%; in series [4], 0%. Also, the Activity in series [5] was 40%; in [6], 90%; in series [7], 99%; in series [8] it was 99%; in series [9], 100%; in [10], 100%. The Activity is on record as 95% in series [11] and 80% in [12].

On to `COC(=O)C1(c2ccccc2)C(=O)N(C(C)(C)c2cc(Cl)cc(Cl)c2)C=C1C(F)F` (centres undefined), for which the Activity in series [13] is 0%; in series [14], 87.6%; in series [15] it was 0%; in [16], 0%; in [17], 87.6%; in [18] it was 100%. Also, the Activity in series [19] was found to be 0%; in series [20], 50.1%.

As for `CCOC(=O)C1(c2ccccc2)C(=O)N(C(C)(C)c2cc(Cl)cc(Cl)c2)C=C1C` (centres undefined), the Activity in series [13] turned out to be 75.1%; in series [14] it was 100%; in [15] it was 100%; in series [16], 87.6%; in [17], 100%; in series [18], 100%. The Activity is reported as 0% in series [19] and 75.1% in [20].

For the compound `COC(=O)C1(c2ccccc2)C(=O)N(C(C)(C)c2cc(Cl)cc(Cl)c2)C=C1COC(C)=O` (centres undefined), the Activity in series [13] was found to be 0%; in series [14], 100%; in [15] it was 75.1%; in series [16] it was 0.1%; in series [17] it was 100%; in [18], 100%. Moreover, the Activity is listed as 0.1% in series [19] and 87.6% in [20].

As to `C=C1CN(C(C)(C)c2cc(Cl)cc(Cl)c2)C(=O)C1(C(=O)OC)c1ccccc1F` (centres undefined), the Activity in series [1] is 98%; in [3], 0%; in [4], 0%; in [5], 65%; in series [6] it was 95%; in [7], 95%. The Activity in [8] was determined as 99%; in series [9], 99%; in series [10] it was 99%; in series [11], 80%.

For the compound `CC1=CN(C(C)(C)c2cc(Cl)cc(Cl)c2)C(=O)C1(C(=O)OCc1ccccc1)c1ccccc1` (centres undefined), the Activity was 0% in series [13]; 0% in [14]; 0% in series [15]; 50.1% in series [16]; 100% in series [17]; 100% in series [18]. In addition, the Activity in series [19] and in series [20] was 0% each time.

With `CC1=C(c2ccccc2)C(=O)N(C(C)(C)c2cc(Cl)cc(Cl)c2)C1`, the Activity in series [13] was found to be 100%; in [14] it was 100%; in series [15], 100%; in series [16] it was 87.6%; in series [17], 100%; in series [18] it was 100%. Further, the Activity was 75.1% in series [19]; 87.6% in series [20]; 98% in [1]; 0% in series [3]; 0% in [4]; 40% in [5]. Further, the Activity is 95% in series [6]; 98% in series [7]; 60% in [8]; 95% in [9]; 98% in series [10]; 90% in [11].

As for `COC(=O)C1(c2ccccc2)C(=O)N(C(C)(C)c2cccc(Cl)n2)C=C1C` (centres undefined), the Activity in series [13] is 100%; in series [14], 100%; in series [15], 100%; in [16], 0%; in series [17], 87.6%; in series [18] it was 100%. The Activity in series [19] and in series [20] was 87.6% each time.

For `COC(=O)C1(c2ccccc2)C(=O)N(C(C)(C)c2cc(Cl)cc(Cl)c2)C=C1C#N` (centres undefined), the Activity was 0% in [13]; 87.6% in series [14]; 0% in series [15]; 0% in [16]; 0% in [17]; 100% in series [18]. Besides, the Activity in series [19] was 0%; in series [20], 0.1%.

For the compound `COCC1=CN(C(C)(C)c2cc(Cl)cc(Cl)c2)C(=O)C1(C(=O)OC)c1ccccc1` (centres undefined), the Activity in series [13] turned out to be 50.1%; in series [14], 100%; in [15] it was 100%; in [16] it was 75.1%; in [17], 100%; in series [18], 100%. In addition, the Activity in series [19] was found to be 87.6%; in series [20] it was 87.6%; in [1], 98%; in [3], 0%; in series [4], 0%; in series [6] it was 65%. The Activity in series [7] was determined as 98%; in series [9] it was 99%; in series [10], 100%; in series [11], 30%.

Regarding `COC(=O)C1(c2ccccc2)C(=O)N(C(C)(C)c2cnc3ccccc3c2)C=C1C` (centres undefined), the Activity in series [13] is reported as 50.1%; in [14], 100%; in [15], 100%; in [16], 0%; in series [17], 100%; in [18], 100%. For the same compound, the values for the Activity in series [19] and in [20] were 0% and 87.6%, respectively.

Regarding `COC(=O)C1(c2ccccc2)C(=O)N(C(C)(C)c2ccc3ccccc3c2)C=C1C` (centres undefined), the Activity is recorded as 0% in series [13]; 87.6% in [14]; 87.6% in series [15]; 0.1% in series [16]; 100% in series [17]; 100% in series [18]. Further, the Activity in [19] came to 0%; in series [20], 87.6%.

In the case of `COC(=O)C1(c2ccccc2)C(=O)N(C(C)(C)c2cc(Cl)cc(Cl)c2)C=C1C=O` (centres undefined), the Activity in [13] stood at 50.1%; in [14], 100%; in series [15] it was 100%; in series [16], 0%; in series [17] it was 87.6%; in series [18], 100%. The Activity amounted to 50.1% in [19] and 87.6% in series [20].
